Results: patent US6759432B2, “Medical use of matrix metalloproteinase inhibitors for inhibiting tissue contraction” (University of Florida Research Foundation, priority 1994, dated 2004)

Key:
[1] = test system: Human ocular fibroblasts (Tendon's capsule fibroblasts); test: Toxicity by tritiated thymidine incorporation (DNA synthesis); assay type: cell-based; settings: 80.0, 8.0 and 0.8 μg/ml; 24 hours; medium plus 10% serum and vehicle
Method: The toxicity of the inhibitors was tested by measuring DNA synthesis by tritiated thymidine incorporation. The assay was adapted from a procedure previously described, Woost, P. G. et al 1992.
Human ocular fibroblasts (Tendon's capsule fibroblasts) were cultured in Trimix (DMEM/F-10/M-199) cell culture medium (available from GIBCO/BRL) supplemented with 10% bovine calf serum and grown to confluency in T-75 tissue culture flasks. (That is flasks having a surface area of 75 cm^2.) The cells were split and seeded into 24 well plates at a density of 1×10^4/well in 1.0 ml of medium with 10% bovine calf serum. The cells were incubated for 24-36 hours or until they reached 60-70% confluency. The medium was then changed to serum-free Trimix and the cells were incubated for an additional 24 hours. The cells were then incubated in quadruplicate wells for 24 hours with 1.0 μCi/well ^3H-thymidine in the following conditions: serum-free medium (Trimix), medium plus 10% serum, medium plus 10% serum and vehicle, alone or with the inhibitors. The vehicle was a buffered acetate solution. The solutions comprising medium with 10% serum and vehicle, alone or with inhibitors, were prepared by the method described in Example 1, section (c), above, using Trimix instead of the HEPES buffered DMEM. […] Radioactivity was determined by liquid scintillation counting […] of the solubilized cells. […]

[2] = test system: ocular fibroblasts; test: Fibroblast morphology within collagen lattices (phase contrast microscopy); assay type: cell-based, human
Method: Collagen lattices seeded with ocular fibroblasts were prepared and exposed to MMP inhibitors, both synthetic chemicals and antibodies, as described in Example 3 above. Cellular morphology was monitored by phase contrast microscopy.

[3] = test system: human keratinocytes and human dermal fibroblasts; test: Contraction of artificial skin equivalent; assay type: cell-based; settings: 40 μg/ml; 7 days; vs hydroxamic acid 100 μM
Method: The effect of an MMP inhibitor on the contraction of an artificial skin equivalent was tested. […] This lattice was then exposed to growth medium containing Galardin at 40 μg/ml or hydroxamic acid at 100μM (control).

[4] = test system: rat parietal sheath fibroblasts; test: Collagen lattice contraction, rat parietal sheath fibroblasts; assay type: cell-based; settings: 40 μg/ml
Method: (§1) Collagen lattices (gels) were prepared as previously described in Example 1 and were seeded with 1×10^5 cells per lattice of:
(§2) The lattices were then exposed to growth medium containing Galardin at 40 μg/ml or hydroxamic acid at 100μM (control). The test solutions were made up as described in Example 3 above and approximately 3 ml dose of the appropriate test solutions were used.

[5] = molecular target: stromelysin (Homo sapiens, UniProt P08254); test: biochemical
stromelysin, sequence (P08254 100-477): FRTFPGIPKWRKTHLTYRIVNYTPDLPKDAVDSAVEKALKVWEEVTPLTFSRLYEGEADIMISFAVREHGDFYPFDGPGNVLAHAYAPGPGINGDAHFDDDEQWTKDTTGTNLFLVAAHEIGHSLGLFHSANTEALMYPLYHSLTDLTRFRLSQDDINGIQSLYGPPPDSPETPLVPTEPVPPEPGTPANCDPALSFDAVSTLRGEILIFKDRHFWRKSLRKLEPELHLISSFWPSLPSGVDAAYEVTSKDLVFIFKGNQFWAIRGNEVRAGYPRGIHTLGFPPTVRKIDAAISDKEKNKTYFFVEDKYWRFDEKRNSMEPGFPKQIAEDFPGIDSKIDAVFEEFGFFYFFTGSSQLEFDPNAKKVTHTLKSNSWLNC

[6] = test system: Tenons capsule fibroblast; test: Actin cytoskeleton staining with FITC-phalloidin; assay type: cell-based, human; settings: 40 μg/ml
Method: Monolayer cultures of fibroblasts and collagen lattices (gels) seeded with 1×10^5 cells per lattice were prepared (as described in Example 1).
In order to assess whether this difference was owing to the direct effect of the inhibitor or to differences in the degree of invasion into the matrix, cells were exposed in monolayer culture to the inhibitor and the cytoskeleton was-stained. See FIGS. 10A (control) and 10B (exposed to inhibitor). The arrows indicate the stress fibres on the cells in the monolayer culture.

[7] = test system: MMP activity (proteolytically active species) of human Tenon's capsule fibroblasts; test: Gelatin zymography of seeded collagen lattices; assay type: cell-based; settings: treatment of seeded lattices
Method: Samples of conditioned medium and collagen lattices (1×10^5 cells/lattice) were collected on days 1, 3 and 7 post seeding. Lattices were washed in phosphate buffered saline (PBS; 3×3 ml) prior to homogenisation in 0.5% (vol/vol) Triton-X100 in PBS (Hunt et al. 1993]. Gelatin zymography [Heussen & Dowdle 1980] was then performed on these samples. Briefly, samples and prestained molecular weight standards were resolved on 10% tris glycine gels containing 0.1% gelatin (Novex, R&D Systems, Oxford, U.K.). Gels were then incubated for 30 minutes in renaturing buffer, 30 minutes in developing buffer followed by a further 18 hours in developing buffer at 37° C. (all Novex). Gels were than stained in 0.5% (wt/vol) commassie blue in 45% (vol/vol) water, 45% (vol/vol) methanol and 10% (vol/vol) glacial acetic acid, followed by destaining in 45% (vol/vol) water, 45% (vol/vol) water, 45% (vol/vol) methanol and 10% (vol/vol) glacial acetic acid. MMP activity appeared as clear bands on a blue background.

[8] = test system: human dermal fibroblasts; test: Collagen lattice contraction, human dermal fibroblasts; assay type: cell-based; settings: 40 μg/ml
Method: as §1, §2

[9] = test system: human ocular fibroblasts; test: Cytotoxicity: cell count and trypan blue dye exclusion; assay type: cell-based; settings: 40 and 4 μg/ml; 2×10^4 cells per well; vs control medium
Method: This experiment was carried out substantially according to the method of Example 2, except that cells were seeded at 2×10^4 cells per well, cultured without radioactive material and were exposed to control medium (DMEM/10% NCS) or Galardin at 40 μg/ml and 4 μg/ml concentration. […] Wells were harvested and cells counted on a haemocytometer, see FIG. 3E for the results, and the percentage of viable cells in each well was measured using the trypan blue dye exclusion test, see FIG. 3F for the results.

[10] = molecular target: gelatinase; test: Inhibition constant with gelatinase; assay type: biochemical
[11] = test system: rat endotendon fibroblasts; test: Collagen lattice contraction, rat endotendon fibroblasts; assay type: cell-based; settings: 40 μg/ml
Method: as §1, §2

[12] = test system: human ocular fibroblasts; test: Contraction of fibroblast populated collagen gels (lattice area); assay type: cell-based; settings: for contraction of gels (mean lattice area): 40 and 4 μg/ml, 7 days, vs hydroxamic acid control
Method: They were then removed from their substratum via a trypsinisation and were pelleted by centrifugation at 3000× g for 8 minutes. The supernatant was then discarded and the cell pellet resuspended in 1.1 ml of newborn calf serum. 100 μl of the suspension was removed and counted in a Coulter counter (Model ZF).
Triplicate gels were made by adding 1.05 ml of the concentrated medium to 1.8 ml of the type 1 collagen solution, mixing rapidly and then adding 0.45 ml of a cell suspension containing 300,000 cells and mixing rapidly.
1 ml aliquots of this gel were then added to petri dishes (area=8 cm^2) and then the dishes were rotated so that the gels were evenly distributed across the bottoms of the dishes. The gels were then incubated at 37° C. in 5% CO2 in air until they had solidified (usually 3 to 5 minutes). An area of the gel was then detached from the edge of each petri dish and 3 ml of normal growth medium solution (control 2), inhibitor test solution or buffer solution (control 1), were added. Each gel was then fully detached from the edges and bottom of the petri dish so that free-floating gels were obtained.
The gels, after solidification, were treated for 24 hours with 3 ml of each of the following test solutions:
The test and control solutions were replaced by 3 ml of the appropriate fresh solution after 24 hours. Photographs of the gel areas were taken on days 1 and 2 and were then digitised. The resulting data were processed by a computer and the gel areas were calculated. Phase-contrast photographs were taken of the top and middle of each gel after 1 and 2 days.
Test solutions were used in approximately 3 ml doses. For all contraction experiments cell morphology was monitored by phase contrast microscopy and the growth medium was changed every 3 to 4 days.
Collagen gels were seeded with either 100,000 or 500,000 cells. […] The gels were monitored for 7 days.
They were exposed to inhibitor and control solutions in the following ways:
The experiment was carried out as for (a) above with 1×10^5 cells per lattice and the test solutions used were BB-94 4 μg/ml, BB-94 0.4 μg/ml and control with vehicle (0.1% vol/vol DMSO). The development of the lattices was followed for seven days after seeding.
The experiment was carried out as for (d) above except that the test solutions used were 1:50 (vol/vol) of antibodies in growth medium. The antibodies used were antibodies to MMPs 1, 2, 3 and 9, obtained from Biogenesis Ltd., (Poole, U.K.). A control solution of 0.1% sodium azide and 0.14% rabbit serum in PBS diluted to 1:50 in growth medium was also used.

[13] = 1×10^5 cells per lattice, 7 days, vs hydroxamic acid 100 μM

## CC(C)C[C@H](CC(=O)O)C(=O)N[C@@H](Cc1c[nH]c2ccccc12)C(=O)N[C@@H](C)c1ccccc1 [GM1489]
[1]
  toxicity (3H-thymidine incorporation): no significant toxicity

## CNC(=O)[C@H](Cc1c[nH]c2ccccc12)NC(=O)[C@@H](CC(=O)NO)CC(C)C [GM6001, N-[2(R)-2-(hydroxamidocarbonylmethyl)-4-methylpentanoyl]-L-tryptophan methylamide]
[2]; 4 μg/ml, 7 days post seeding
  cell morphology in lattices: Small cytoplasmic projections
[2]; synthetic inhibitors as in Example 3, compared to controls
  invasion into the surrounding collagen matrix: decreased invasion into the surrounding collagen matrix
[3]
  contraction of artificial skin equivalent (mean lattice area): less contraction than those exposed to the control solution
[4]; [13]
  contraction of lattices (mean lattice area): greatly reduced
[4]; compared to controls
  cellular invasion into and migration through the surrounding matrix: decreased cellular invasion into and migration through
[5]
  Ki: 20 nM
[6]; collagen lattice
  actin stress fibres on cells populating collagen gels: do not appear to be present
[6]; monolayer culture, compared to controls
  actin cytoskeleton in monolayer culture: did not appear to affect the actin cytoskeleton
[7]
  proteolytically active species in gelatin zymography: abolishment of the four proteolytically active species
[1]
  toxicity (3H-thymidine incorporation): no significant toxicity
[8]; [13]
  contraction of lattices (mean lattice area): greatly reduced
[8]; compared to controls
  cellular invasion into and migration through the surrounding matrix: decreased cellular invasion into and migration through
[9]
  cell number per well (haemocytometer): did not adversely affect
  cell viability (percentage of viable cells, trypan blue): did not adversely affect
[10]
  Ki: 0.4 nM
[11]; [13]
  contraction of lattices (mean lattice area): greatly reduced
[11]; compared to controls
  cellular invasion into and migration through the surrounding matrix: decreased cellular invasion into and migration through
[12]; 4 μg/ml from day 5 for 25 days, vs control solution
  contraction of lattices already contracted for 5 days: inhibited contraction
[12]; 4 μg/ml until day 14, then control solution
  contraction after replacement of inhibitor by control solution (reversibility): significant increase in contraction from day 14 onwards
[12]; 40 μg/ml from day 5 for 25 days
  contraction of lattices already contracted for 5 days: stronger inhibitory effect than the 4 μg/ml solution
[12]; 400, 40 and 4 μg/ml, 100,000 cells per gel, 2 days, vs buffer and normal growth medium
  contraction of collagen gels (gel area): inhibited the contraction of the collagen gels
[12]; 400, 40 and 4 μg/ml, 2 days
  dose dependence of inhibition of gel contraction: dose dependent
  viability of cells in the collagen gels at end of test (phase contrast microscopy): appeared to be viable
[12]; 100,000 cells per lattice
  contraction of gels (mean lattice area): much less than that of gels exposed to control solutions
[12]; 500,000 cells per lattice
  contraction of gels (mean lattice area): much less than that of gels exposed to the control solution
[12]; continual exposure to 4 μg/ml, 1×10^5 cells/lattice, up to 40 to 50 days
  contraction of lattices (mean lattice area): very little contraction
